# Experimental data published in patent publication US9630963B2, “Quinolone derivatives as fibroblast growth factor inhibitors” (Principia Biopharma, Inc., priority 2013, dated 2017).
# Columns and labels:
# human recombinant FGFR1 = human recombinant FGFR1 (Homo sapiens, UniProt P11362); assay: FGFR family enzymatic activity assay (Caliper-based kinase assay), FGFR1; format: biochemical; settings: FGFR1 0.5 nM, ATP 100 μM, peptide substrate 1 μM, room temperature 3 h
# From the text: A Caliper-based kinase assay (Caliper Life Sciences, Hopkinton, Mass.) was used to measure inhibition of FGFR family (FGFR1, FGFR2, FGFR3, FGFR4) kinase activity of a compound of Formula (I′) or (I). […] This value is presented as the IC50.
# SNU-16 cells = assay: Inhibition of FGFR2-dependent cell growth (Cell-titer Glo); format: cell-based; settings: Homo sapiens, SNU16 cells, 72 hrs incubation, cell viability by Cell-titer Glo
# Procedure: The cell-based effects of FGFR inhibitors were determined by measuring inhibition of FGFR-dependent cell line growth. […] Percent inhibition of cell growth was calculated as a percentage of untreated cell viability. The percent inhibition was plotted as a function of log compound concentration. The IC50 was then calculated for each compound using Prism software from GraphPad.
# Sequence of human recombinant FGFR1 (P11362 22-822): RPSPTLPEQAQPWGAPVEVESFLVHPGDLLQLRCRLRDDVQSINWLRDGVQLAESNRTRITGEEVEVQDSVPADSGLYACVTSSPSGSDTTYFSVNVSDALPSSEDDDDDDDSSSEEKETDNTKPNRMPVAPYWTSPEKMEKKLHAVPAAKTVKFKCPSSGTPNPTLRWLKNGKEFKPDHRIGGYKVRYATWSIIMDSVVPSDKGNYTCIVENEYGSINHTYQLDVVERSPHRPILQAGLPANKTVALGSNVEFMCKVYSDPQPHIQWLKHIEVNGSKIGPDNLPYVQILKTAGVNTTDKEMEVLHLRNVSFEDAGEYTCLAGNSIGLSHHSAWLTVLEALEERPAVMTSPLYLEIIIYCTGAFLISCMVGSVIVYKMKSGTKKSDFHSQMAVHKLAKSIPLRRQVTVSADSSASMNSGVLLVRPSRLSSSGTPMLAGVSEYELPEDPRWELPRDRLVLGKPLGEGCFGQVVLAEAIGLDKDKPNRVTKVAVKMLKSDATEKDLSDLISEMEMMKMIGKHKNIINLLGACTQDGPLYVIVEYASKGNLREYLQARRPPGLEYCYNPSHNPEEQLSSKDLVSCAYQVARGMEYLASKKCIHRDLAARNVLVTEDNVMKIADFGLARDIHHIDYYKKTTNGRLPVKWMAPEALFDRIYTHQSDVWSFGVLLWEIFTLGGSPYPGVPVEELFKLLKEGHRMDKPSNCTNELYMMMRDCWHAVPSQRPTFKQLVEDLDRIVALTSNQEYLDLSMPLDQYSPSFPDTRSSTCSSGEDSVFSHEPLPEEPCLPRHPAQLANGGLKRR
IC50 (human recombinant FGFR1) [nM],IC50 (SNU-16 cells) [nM],SMILES
6,3.6,"C=CC(=O)Nc1cccc(CCn2c(=O)c(-c3cc(OC)cc(OC)c3Cl)cc3cnc(NCCN4CCOCC4)nc32)c1 [Example 35, N-(3-(2-(6-(2-chloro-3,5-dimethoxyphenyl)-2-((2-morpholinoethyl)amino)-7-oxo-pyrido[2,3-d]pyrimidin-8(7H)-yl)ethyl)phenyl)acrylamide]"
4.1,32.7,"C=CC(=O)Nc1nc(CCn2c(=O)c(-c3cc(OC)cc(OC)c3Cl)cc3cnc(NC)nc32)cs1 [Example 33, N-(4-(2-(6-(2-chloro-3,5-dimethoxyphenyl)-2-(methylamino)-7-oxopyrido[2,3-d]-pyrimidin-8(7H)-yl)ethyl)thiazol-2-yl)acrylamide]"
0.3,16.4,"C=CC(=O)Nc1ccc(CCn2c(=O)c(-c3c(Cl)c(OC)cc(OC)c3Cl)cc3cnc(NCC4(O)CCN(C)CC4)nc32)cc1 [Example 98, N-(4-(2-(6-(2,6-dichloro-3,5-dimethoxyphenyl)-2-(((4-hydroxy-1-methylpiperidin-4-yl)methyl)-amino)-7-oxopyrido[2,3-d]pyrimidin-8(7H)-yl)ethyl)phenyl)acrylamide]"
0.7,14.5,"C=CC(=O)Nc1ccc(CCn2c(=O)c(-c3c(Cl)c(OC)cc(OC)c3Cl)cc3cnc(NCC(C)(C)O)nc32)nc1 [Example 84, N-(6-(2-(6-(2,6-dichloro-3,5-dimethoxyphenyl)-2-((2-hydroxy-2-methylpropyl)-amino)-7-oxopyrido[2,3-d]pyrimidin-8(7H)-yl)ethyl)pyridin-3-yl)acrylamide]"
0.4,0.4,"C=CC(=O)Nc1ccc(CCn2c(=O)c(-c3cc(OC)cc(OC)c3Cl)cc3cnc(NCCN4CCN(C(C)C)CC4)nc32)cc1 [Example 57, N-(4-(2-(6-(2-chloro-3,5-dimethoxyphenyl)-2-((4-isopropylpiperazin-1-yl-ethyl)amino)-7-oxopyrido[2,3-d]pyrimidin-8(7H)-yl)ethyl)phenyl)acylamide]"
1.2,2.6,"C=CC(=O)Nc1ccc(CCn2c(=O)c(-c3c(Cl)c(OC)cc(OC)c3Cl)cc3cnc(NC(C)(CO)CO)nc32)nc1 [Example 99, N-(6-(2-(6-(2,6-dichloro-3,5-dimethoxyphenyl)-2-((1,3-dihydroxy-2-methylpropan-2-yl)-amino)-7-oxopyrido[2,3-d]pyrimidin-8(7H)-yl)ethyl)pyridin-3-yl)acrylamide]"
0.9,3,"C=CC(=O)Nc1ccc(CCn2c(=O)c(-c3cc(OC)cc(OC)c3Cl)cc3cnc(NCCN4CCN(C5COC5)CC4)nc32)cc1 [Example 78, N-(4-(2-(6-(2-chloro-3,5-dimethoxyphenyl)-2-((2-(4-(oxetan-3-yl)piperazin-1-yl)ethyl)amino)-7-oxopyrido[2,3-d]pyrimidin-8(7H)-yl)ethyl)phenyl)acrylamide]"
1.5,6.4,"C=CC(=O)Nc1ccc(CCn2c(=O)c(-c3c(Cl)c(OC)cc(OC)c3Cl)cc3cnc(NCC(C)(C)CO)nc32)nc1 [Example 97, N-(6-(2-(6-(2,6-dichloro-3,5-dimethoxyphenyl)-2-((3-hydroxy-2,2-dimethylpropyl)-amino)-7-oxopyrido[2,3-d]pyrimidin-8(7H)-yl)ethyl)pyridin-3-yl)acrylamide]"
22.2,94.2,"C=CC(=O)Nc1cccc(CCn2c(=O)c(-c3cc(OC)cc(OC)c3)cc3cnc(NC)nc32)n1 [Example 11, N-(6-(2-(6-(3,5-dimethoxyphenyl)-2-(methylamino)-7-oxopyrido[2,3-d]pyrimidin-8(7H)-yl)ethyl)pyridin-2-yl)acrylamide]"
11.7,33.3,"C=CC(=O)Nc1ccc(CCn2c(=O)c(-c3cc(OC)cc(OC)c3Cl)cc3cnc(NCCN4CCOCC4)nc32)cc1F [Example 54, N-(4-(2-(6-(2-chloro-3,5-dimethoxyphenyl)-2-((2-morpholinoethyl)amino)-7-oxopyrido[2,3-d]pyrimidin-8(7H)-yl)ethyl)-2-fluorophenyl)acrylamide]"
0.5,9.6,"C=CC(=O)Nc1ccc(CCn2c(=O)c(-c3c(Cl)c(OC)cc(OC)c3Cl)cc3cnc(NC(C)C)nc32)nc1 [Example 80, N-(6-(2-(6-(2,6-dichloro-3,5-dimethoxyphenyl)-2-(isopropylamino)-7-oxopyrido[2,3-d]pyrimidin-8(7H)-yl)ethyl)pyridin-3-yl)acrylamide]"
0.7,1.5,"C=CC(=O)Nc1ccc(CCn2c(=O)c(-c3c(Cl)c(OC)cc(OC)c3Cl)cc3cnc(NCC(C)(C)CO)nc32)cc1 [Example 93, N-(4-(2-(6-(2,6-dichloro-3,5-dimethoxyphenyl)-2-((3-hydroxy-2,2-dimethylpropyl)-amino)-7-oxopyrido[2,3-d]pyrimidin-8(7H)-yl)ethyl)phenyl)acrylamide]"
0.6,2.9,"C=CC(=O)Nc1ccc(CCn2c(=O)c(-c3c(Cl)c(OC)cc(OC)c3Cl)cc3cnc(NC(C)(CO)CO)nc32)cc1 [Example 91, N-(4-(2-(6-(2,6-dichloro-3,5-dimethoxyphenyl)-2-((1,3-dihydroxy-2-methylpropan-2-yl)amino)-7-oxopyrido[2,3-d]pyrimidin-8(7H)-yl)ethyl)phenyl)acrylamide]"
1.8,4.6,"C=CC(=O)Nc1ccc(CCn2c(=O)c(-c3c(Cl)c(OC)cc(OC)c3Cl)cc3cnc(NCC4CC4)nc32)cc1 [Example 90, N-(4-(2-(2-((cyclopropylmethyl)amino)-6-(2,6-dichloro-3,5-dimethoxyphenyl)-7-oxopyrido[2,3-d]pyrimidin-8(7H)-yl)ethyl)phenyl)acrylamide]"
0.9,7.4,"C=CC(=O)Nc1ccc(CCn2c(=O)c(-c3cc(OC)cc(OC)c3Cl)cc3cnc(N)nc32)cc1 [Example 27, N-(4-(2-(2-amino-6-(2-chloro-3,5-dimethoxyphenyl)-7-oxopyrido[2,3-d]pyrimidin-8(7H)-yl)ethyl)phenyl)acrylamide]"
7.4,11.7,"C=CC(=O)Nc1ccc(CCn2c(=O)c(-c3cc(OC)cc(OC)c3Cl)cc3cnc(NCCn4ccnc4)nc32)cc1 [Example 50, N-(4-(2-(2-((2-(1H-imidazol-1-yl)ethyl)amino)-6-(2-chloro-3,5-dimethoxyphenyl)-7-oxopyrido[2,3-d]pyrimidin-8(7H)-yl)ethyl)phenyl)acrylamide]"
2.4,3,"C=CC(=O)Nc1ccc(CCn2c(=O)c(-c3cc(OC)cc(OC)c3Cl)cc3cnc(NCCCN(CC)CC)nc32)cc1 [Example 40, N-(4-(2-(6-(2-chloro-3,5-dimethoxyphenyl)-2-((3-(diethylamino)propyl)amino)-7-oxopyrido[2,3-d]pyrimidin-8(7H)-yl)ethyl)phenyl)acrylamide]"
3.4,24.3,"C=CS(=O)(=O)Nc1ccc(CCn2c(=O)c(-c3cc(OC)cc(OC)c3Cl)cc3cnc(NC)nc32)cc1 [Example 20, N-(4-(2-(6-(2-chloro-3,5-dimethoxyphenyl)-2-(methylamino)-7-oxopyrido[2,3-d]pyrimidin-8(7H)-yl)ethyl)phenyl)ethenesulfonamide]"
1.1,6.3,"C=CC(=O)Nc1ccc(CCn2c(=O)c(-c3c(Cl)c(OC)cc(OC)c3Cl)cc3cnc(NC(CC)(CO)CO)nc32)cc1 [Example 92, N-(4-(2-(6-(2,6-dichloro-3,5-dimethoxyphenyl)-2-((1-hydroxy-2-(hydroxymethyl)-butan-2-yl)amino)-7-oxopyrido[2,3-d]pyrimidin-8(7H)-yl)ethyl)phenyl)acrylamide]"
0.2,4.8,"C=CC(=O)Nc1ccc(CCn2c(=O)c(-c3c(Cl)c(OC)cc(OC)c3Cl)cc3cnc(NC4CCOCC4)nc32)cc1 [Example 89, N-(4-(2-(6-(2,6-dichloro-3,5-dimethoxyphenyl)-7-oxo-2-((tetrahydro-2H-pyran-4-yl)amino)pyrido[2,3-d]pyrimidin-8(7H)-yl)ethyl)phenyl)acrylamide]"
0.6,24.6,"C=CC(=O)Nc1ccc(CCn2c(=O)c(-c3c(Cl)c(OC)cc(OC)c3Cl)cc3cnc(NCC(O)CO)nc32)nc1 (stereo not drawn) [Example 88, N-(6-(2-(6-(2,6-dichloro-3,5-dimethoxyphenyl)-2-((2,3-dihydroxypropyl)amino)-7-oxopyrido[2,3-d]pyrimidin-8(7H)-yl)ethyl)pyridin-3-yl)acrylamide]"
0.5,0.6,"C#CCNc1ncc2cc(-c3cc(OC)cc(OC)c3Cl)c(=O)n(CCc3ccc(NC(=O)C=C)cn3)c2n1 [Example 59, N-(6-(2-(6-(2-chloro-3,5-dimethoxyphenyl)-7-oxo-2-(prop-2-yn-1-ylamino)pyrido-[2,3-d]pyrimidin-8(7H)-yl)ethyl)pyridin-3-yl)acrylamide]"
0.4,1,"CNc1ncc2cc(-c3cc(OC)cc(OC)c3Cl)c(=O)n(CCc3ccc(NC(=O)/C=C/CN(C)C)cc3)c2n1 [Example 22, (E)-N-(4-(2-(6-(2-chloro-3,5-dimethoxyphenyl)-2-(methylamino)-7-oxopyrido[2,3-d]pyrimidin-8(7H)-yl)ethyl)phenyl)-4-(dimethylamino)but-2-enamide]"
28.9,71.3,"C=CC(=O)Nc1ccc(CCn2c(=O)c(-c3cc(OC)cc(OC)c3F)cc3cnc(NCCN4CCOCC4)nc32)cc1F [Example 53, N-(2-fluoro-4-(2-(6-(2-fluoro-3,5-dimethoxyphenyl)-2-((2-morpholinoethyl)amino)-7-oxopyrido[2,3-d]pyrimidin-8(7H)-yl)ethyl)phenyl)acrylamide]"
